Values of other authors as cited in US11291622B2, “Method for dyeing keratinous material, comprising the use of an organosilicon compound, a dyeing compound and a silicon oil” (Henkel AG & Co. KGaA, priority 2018, dated 2022).
Read-outs that look alike come from different tables or passages of the source.

Molecule	solubility in water (25° C.)	solubility in water (at about 25° C.)
CCN(Cc1cccc(S(=O)(=O)[O-])c1)c1ccc(C(=C2C=CC(=[N+](CC)Cc3cccc(S(=O)(=O)[O-])c3)C=C2)c2ccccc2S(=O)(=O)[O-])cc1.[Na+].[Na+] [Acid Blue 9]	more than 20 % by weight	
O=S(=O)([O-])c1ccc(N=Nc2c(O)ccc3ccccc23)cc1.[Na+] [Acid Orange 7, sodium salt of 4-[(2-hydroxy-1-naphthyl)azo]benzene sulphonate]	more than 7 g/L	
Nc1cc(S(=O)(=O)[O-])cc2cc(S(=O)(=O)[O-])c(N=Nc3ccccc3)c(O)c12.[Na+].[Na+] [Acid Red 33, diantrium salt of 5-amino-4-hydroxy-3-(phenylazo)-naphthalene-2,7-disulphonate]	about 2.5 g/L	

Further lines, results first:

solubility in water (25° C.)	solubility in water (at about 25° C.)	Molecule
	highly soluble in water	O=C([O-])C1=NN(c2ccc(S(=O)(=O)[O-])cc2)C(=O)C1N=Nc1ccc(S(=O)(=O)[O-])cc1.[Na+].[Na+].[Na+] (centres unmarked) [Acid Yellow 23, trisodium salt of 4,5-dihydro-5-oxo-1-(4-sulfophenyl)-4-((4-sulfophenyl)azo)-1H-pyrazole-3-carboxylic acid]
about 20 g/L		mixture of the sodium salts of mono- and disulfonic acids of 2-(2-quinolyl)-1H-indene-1,3(2H)-dione [Acid Yellow 3]
